# Results reported in US10800792B2, “Inhibitors of Bruton's tyrosine kinase and method of their use” (JANSSEN PHARMACEUTICA NV, priority 2015, dated 2020).
# Molecular target: unphosphorylated-BTK kinase domain (UP-BTK), GST-tagged human BTK (389-659aa) (Homo sapiens (Human), UniProt Q06187)
# Test: BTK kinase Lanthascreen binding assay
# Settings: unphosphorylated-BTK kinase domain, 50 nM Tracer 236, 60 minutes; pIC50 = negative log of the IC50 in molar
# Procedure: BTK Kinase Lanthascreen Binding Assay:
# A BTK kinase lanthascreen binding assay monitors compound binding to unphosphorylated-BTK kinase domain (UP-BTK), by competing with a fluorescent labeled tracer. […] Data were analyzed using Xlfit™ version 5.3 from ID Business Solutions (Guildford), Microsoft Excel add-in. pIC50 refers to the negative log of the IC50 in molar
# Sequence of unphosphorylated-BTK kinase domain (UP-BTK), GST-tagged human BTK (389-659aa) (Q06187 389-659): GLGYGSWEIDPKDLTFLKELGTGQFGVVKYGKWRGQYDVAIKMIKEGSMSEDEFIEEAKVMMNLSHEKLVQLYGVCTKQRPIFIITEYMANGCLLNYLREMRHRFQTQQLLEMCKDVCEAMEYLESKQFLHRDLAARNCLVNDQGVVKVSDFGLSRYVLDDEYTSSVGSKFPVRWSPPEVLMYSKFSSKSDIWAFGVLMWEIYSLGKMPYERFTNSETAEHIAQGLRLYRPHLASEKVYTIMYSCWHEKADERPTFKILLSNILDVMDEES
row,BTK_I_binding pIC50,Compound
1,6.6,"Cc1cc(Oc2ccccc2)ccc1N1C(=O)Nc2c(C(=O)N[C@@H]3CCCN(C(=O)/C(C#N)=C/C(C)(C)C)C3)sc3nccc1c23 (single isomer, unassigned) [Example 398, (R,E)-N-(1-(2-Cyano-4,4-dimethylpent-2-enoyl)piperidin-3-yl)-5-(*R)-(2-methyl-4-phenoxyphenyl)-4-oxo-4,5-dihydro-3H-1-thia-3,5,8-triazaacenaphthylene-2-carboxamide]"
2,7.0,"Cc1cc(Oc2ccccc2)ccc1N1C(=O)Nc2c(C(=O)N[C@H]3CCNC(C)C3)sc3nccc1c23 (single isomer, unassigned) [Example 432, 5-(*S)-(2-Methyl-4-phenoxyphenyl)-N-((4*S)-2-methylpiperidin-4-yl)-4-oxo-4,5-dihydro-3H-1-thia-3,5,8-triazaacenaphthylene-2-carboxamide]"
3,5.4,"Cc1cc(Oc2ccccc2)ccc1N1C(=O)Nc2c(C(=O)N[C@H]3CCNC(C)C3)sc3nccc1c23 (single isomer, unassigned) [Example 433, 5-(*R)-(2-Methyl-4-phenoxyphenyl)-N-((4*S)-2-methylpiperidin-4-yl)-4-oxo-4,5-dihydro-3H-1-thia-3,5,8-triazaacenaphthylene-2-carboxamide]"
4,7.3,"Cc1cc(Oc2ccccc2)ccc1N1C(=O)Nc2c(C(=O)N[C@@H]3CCNC(C)C3)sc3nccc1c23 (single isomer, unassigned) [Example 434, 5-(*S)-(2-Methyl-4-phenoxyphenyl)-N-((4*R)-2-methylpiperidin-4-yl)-4-oxo-4,5-dihydro-3H-1-thia-3,5,8-triazaacenaphthylene-2-carboxamide]"
5,5.9,"Cc1cc(Oc2ccccc2)ccc1N1C(=O)Nc2c(C(=O)N[C@@H]3CCNC(C)C3)sc3nccc1c23 (single isomer, unassigned) [Example 435, 5-(*R)-(2-Methyl-4-phenoxyphenyl)-N-((4*R)-2-methylpiperidin-4-yl)-4-oxo-4,5-dihydro-3H-1-thia-3,5,8-triazaacenaphthylene-2-carboxamide]"
6,6.7,"CC(C)=C(Cl)C(=O)N1CCC[C@@H](NC(=O)c2sc3nccc4c3c2NC(=O)N4c2ccc(Oc3ccccc3)cc2C)C1 (single isomer, unassigned) [Example 438, (R)—N-(1-(2-Chloro-3-methylbut-2-enoyl)piperidin-3-yl)-5-(*S)-(2-methyl-4-phenoxyphenyl)-4-oxo-4,5-dihydro-3H-1-thia-3,5,8-triazaacenaphthylene-2-carboxamide]"
7,5.7,"CC(C)=C(Cl)C(=O)N1CCC[C@@H](NC(=O)c2sc3nccc4c3c2NC(=O)N4c2ccc(Oc3ccccc3)cc2C)C1 (single isomer, unassigned) [Example 439, (R)—N-(1-(2-Chloro-3-methylbut-2-enoyl)piperidin-3-yl)-5-(*R)-(2-methyl-4-phenoxyphenyl)-4-oxo-4,5-dihydro-3H-1-thia-3,5,8-triazaacenaphthylene-2-carboxamide]"
8,5.9,"C=CC(=O)N1CC[C@@H](N(C)C(=O)c2sc3nccc4c3c2NC(=O)N4c2ccc(Oc3ccccc3)cc2C)C1 (single isomer, unassigned) [Example 441, (R)—N-(1-Acryloylpyrrolidin-3-yl)-N-methyl-5-(*S)-(2-methyl-4-phenoxyphenyl)-4-oxo-4,5-dihydro-3H-1-thia-3,5,8-triazaacenaphthylene-2-carboxamide]"
9,6.9,"C=CC(=O)N1CC[C@@H](N(C)C(=O)c2sc3nccc4c3c2NC(=O)N4c2ccc(Oc3ccccc3)cc2C)C1 (single isomer, unassigned) [Example 442, (R)—N-(1-Acryloylpyrrolidin-3-yl)-N-methyl-5-(*R)-(2-methyl-4-phenoxyphenyl)-4-oxo-4,5-dihydro-3H-1-thia-3,5,8-triazaacenaphthylene-2-carboxamide]"
10,7.6,"COC(C)(C)/C=C(\C#N)C(=O)N1CCC[C@@H](NC(=O)c2sc3nccc4c3c2NC(=O)N4c2ccc(Oc3ccccc3)cc2C)C1 (single isomer, unassigned) [Example 450, (R,*E)-N-(1-(2-Cyano-4-methoxy-4-methylpent-2-enoyl)piperidin-3-yl)-5-(*S)-(2-methyl-4-phenoxyphenyl)-4-oxo-4,5-dihydro-3H-1-thia-3,5,8-triazaacenaphthylene-2-carboxamide]"
11,7.1,"Cc1cc(Oc2ccccc2)ccc1N1C(=O)Nc2c(C(=O)N[C@@H]3CNC(=O)C3)sc3nccc1c23 (single isomer, unassigned) [Example 469, (*S)-5-(*S)-(2-Methyl-4-phenoxyphenyl)-4-oxo-N-(5-oxopyrrolidin-3-yl)-4,5-dihydro-3H-1-thia-3,5,8-triazaacenaphthylene-2-carboxamide]"
12,5.6,"Cc1cc(Oc2ccccc2)ccc1N1C(=O)Nc2c(C(=O)N[C@@H]3CNC(=O)C3)sc3nccc1c23 (single isomer, unassigned) [Example 470, (*S)-5-(*R)-(2-Methyl-4-phenoxyphenyl)-4-oxo-N-(5-oxopyrrolidin-3-yl)-4,5-dihydro-3H-1-thia-3,5,8-triazaacenaphthylene-2-carboxamide]"
13,5.9,"Cc1cc(Oc2ccccc2)ccc1N1C(=O)Nc2c(C(=O)N[C@H]3CNC(=O)C3)sc3nccc1c23 (single isomer, unassigned) [Example 471, (*R)-5-(*S)-(2-Methyl-4-phenoxyphenyl)-4-oxo-N-(5-oxopyrrolidin-3-yl)-4,5-dihydro-3H-1-thia-3,5,8-triazaacenaphthylene-2-carboxamide]"
14,7.4,"Cc1cc(Oc2ccccc2)ccc1N1C(=O)Nc2c(C(=O)N[C@H]3CNC(=O)C3)sc3nccc1c23 (single isomer, unassigned) [Example 472, (*R)-5-(*R)-(2-Methyl-4-phenoxyphenyl)-4-oxo-N-(5-oxopyrrolidin-3-yl)-4,5-dihydro-3H-1-thia-3,5,8-triazaacenaphthylene-2-carboxamide]"
15,5.9,"C/C=C/C(=O)N1CCC[C@@H](NC(=O)c2sc3nccc4c3c2NC(=O)N4c2ccc(Oc3ccccc3)cc2C)C1 (single isomer, unassigned) [Example 473, (R,*E)-N-(1-(But-2-enoyl)piperidin-3-yl)-5-(*S)-(2-methyl-4-phenoxyphenyl)-4-oxo-4,5-dihydro-3H-1-thia-3,5,8-triazaacenaphthylene-2-carboxamide]"
16,7.6,"C/C=C/C(=O)N1CCC[C@@H](NC(=O)c2sc3nccc4c3c2NC(=O)N4c2ccc(Oc3ccccc3)cc2C)C1 (single isomer, unassigned) [Example 474, (R,*E)-N-(1-(But-2-enoyl)piperidin-3-yl)-5-(*R)-(2-methyl-4-phenoxyphenyl)-4-oxo-4,5-dihydro-3H-1-thia-3,5,8-triazaacenaphthylene-2-carboxamide]"
17,6.1,"C/C=C\C(=O)N1CCC[C@@H](NC(=O)c2sc3nccc4c3c2NC(=O)N4c2ccc(Oc3ccccc3)cc2C)C1 (single isomer, unassigned) [Example 475, (R,*Z)—N-(1-(But-2-enoyl)piperidin-3-yl)-5-(*R)-(2-methyl-4-phenoxyphenyl)-4-oxo-4,5-dihydro-3H-1-thia-3,5,8-triazaacenaphthylene-2-carboxamide]"
18,7.4,"C/C=C\C(=O)N1CCC[C@@H](NC(=O)c2sc3nccc4c3c2NC(=O)N4c2ccc(Oc3ccccc3)cc2C)C1 (single isomer, unassigned) [Example 476, (R,*Z)—N-(1-(But-2-enoyl)piperidin-3-yl)-5-(*S)-(2-methyl-4-phenoxyphenyl)-4-oxo-4,5-dihydro-3H-1-thia-3,5,8-triazaacenaphthylene-2-carboxamide]"
19,7.9,"Cc1cc(Oc2ccccc2)ccc1N1C(=O)Nc2c(C(=O)NC3COCCN(C#N)C3)sc3nccc1c23 (single isomer, unassigned) [Example 485, N-(4-Cyano-1,4-oxazepan-6-yl)-5-(*S)-(2-methyl-4-phenoxyphenyl)-4-oxo-4,5-dihydro-3H-1-thia-3,5,8-triazaacenaphthylene-2-carboxamide]"
20,7.2,"Cc1cc(Oc2ccccc2)ccc1N1C(=O)Nc2c(C(=O)N[C@@H]3CCCN(C(=O)/C=C/CN(C)C)C3)sc3nccc1c23 (single isomer, unassigned) [Example 488, (R,E)-N-(1-(4-(Dimethylamino)but-2-enoyl)piperidin-3-yl)-5-(*S)-(2-methyl-4-phenoxyphenyl)-4-oxo-4,5-dihydro-3H-1-thia-3,5,8-triazaacenaphthylene-2-carboxamide]"
21,7.6,"Cc1cc(Oc2ccccc2)ccc1N1C(=O)Nc2c(C(=O)N[C@@H]3CCN(C(=O)/C(C#N)=C/C4CC4)C3)sc3nccc1c23 (single isomer, unassigned) [Example 491, (R,E)-N-(1-(2-Cyano-3-cyclopropylacryloyl)pyrrolidin-3-yl)-5-(*S)-(2-methyl-4-phenoxyphenyl)-4-oxo-4,5-dihydro-3H-1-thia-3,5,8-triazaacenaphthylene-2-carboxamide]"
22,8.0,"CNC/C=C/C(=O)N1CC[C@@H](NC(=O)c2sc3nccc4c3c2NC(=O)N4c2ccc(Oc3ccccc3)cc2C)C1 (single isomer, unassigned) [Example 492, (R,E)-5-(*S)-(2-Methyl-4-phenoxyphenyl)-N-(1-(4-(methylamino)but-2-enoyl)pyrrolidin-3-yl)-4-oxo-4,5-dihydro-3H-1-thia-3,5,8-triazaacenaphthylene-2-carboxamide]"
23,6.9,"Cc1cc(Oc2ccccc2)ccc1N1C(=O)Nc2c(C(=O)N[C@@H]3CCN(C)C3)sc3nccc1c23 (single isomer, unassigned) [Example 493, (R)-5-(*S)-(2-Methyl-4-phenoxyphenyl)-N-(1-methylpyrrolidin-3-yl)-4-oxo-4,5-dihydro-3H-1-thia-3,5,8-triazaacenaphthylene-2-carboxamide]"
